Test results as given in patent US6737383B1, “Herbicidal oxadiazolidines” (priority 1999, dated 2004).

How the values were obtained:
[1] = tested on: bedstraw; test: Test B pre/postemergence bedstraw; format: in vivo, Galium aparine
Summary of the method: (§1)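 Response is a visual 0-to-10 score relative to untreated plants, where 0 means no effect and 10 means complete control, taken twelve to sixteen days after application. Treatments went onto soil at planting and onto foliage of 1- to 4-leaf plants, using a surfactant-containing non-phytotoxic solvent.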

[2] = tested on: wheat; test: Test B pre/postemergence wheat; format: in vivo, Triticum aestivum
Summary of the method: as §1

[3] = tested on: corn; test: Test B pre/postemergence corn; format: in vivo, Zea mays
Summary of the method: as §1

[4] = tested on: blackgrass; test: Test B pre/postemergence blackgrass; format: in vivo, Alopecurus myosuroides
Summary of the method: as §1

[5] = tested on: surinam grass; test: Test B pre/postemergence surinam grass; format: in vivo, Brachiaria decumbens
Summary of the method: as §1

[6] = tested on: purple nutsedge; test: Test B pre/postemergence purple nutsedge; format: in vivo, Cyperus rotundus
Summary of the method: as §1

[7] = tested on: crabgrass; test: Test B pre/postemergence crabgrass; format: in vivo, Digitaria sanguinalis
Summary of the method: as §1

[8] = tested on: pigweed; test: Test B pre/postemergence pigweed; format: in vivo, Amaranthus retroflexus
Summary of the method: as §1

[9] = tested on: cocklebur; test: Test B pre/postemergence cocklebur; format: in vivo, Xanthium strumarium
Summary of the method: as §1

[10] = tested on: soybean; test: Test B pre/postemergence soybean; format: in vivo, Glycine max
Summary of the method: as §1

[11] = tested on: wild oat; test: Test B pre/postemergence wild oat; format: in vivo, Avena fatua
Summary of the method: as §1

[12] = tested on: morningglory; test: Test B pre/postemergence morningglory; format: in vivo, Ipomoea hederacea
Summary of the method: as §1

[13] = tested on: velvetleaf; test: Test B pre/postemergence velvetleaf; format: in vivo, Abutilon theophrasti
Summary of the method: as §1

[14] = tested on: giant foxtail; test: Test B pre/postemergence giant foxtail; format: in vivo, Setaria faberii
Summary of the method: as §1

[15] = tested on: rape; test: Test B pre/postemergence rape; format: in vivo, Brassica napus
Summary of the method: as §1

[16] = tested on: sugar beet; test: Test B pre/postemergence sugar beet; format: in vivo, Beta vulgaris
Summary of the method: as §1

[17] = Preemergence, Rate 62 g/ha, scale of 0 to 10 where 0 is no effect and 10 is complete control
[18] = Preemergence, Rate 250 g/ha, scale of 0 to 10 where 0 is no effect and 10 is complete control
[19] = Preemergence, Rate 500 g/ha, scale of 0 to 10 where 0 is no effect and 10 is complete control
[20] = Rate 62 g/ha, Postemergence, scale 0 to 10, 0 no effect, 10 complete control
[21] = Rate 125 g/ha, Postemergence, scale of 0 to 10 where 0 is no effect and 10 is complete control
[22] = Rate 125 g/ha, Preemergence, scale of 0 to 10 where 0 is no effect and 10 is complete control
[23] = Rate 250 g/ha, Postemergence, scale of 0 to 10 where 0 is no effect and 10 is complete control
[24] = Rate 500 g/ha, Postemergence, scale 0 to 10, 0 no effect, 10 complete control

## CC(=O)OCn1c(=O)on(C(=O)N(c2ccc(F)cc2)C(C)C)c1=O [Compound 292]
[1]; [17]
  Bedstraw plant response rating: 0
[1]; [18]
  Bedstraw plant response rating: 0
[1]; [19]
  Plant response rating, Bedstraw: 0
[1]; [20]
  Bedstraw plant response rating: 0
[1]; [21]
  Bedstraw plant response rating: 0
[1]; [22]
  Bedstraw plant response rating: 0
[1]; [23]
  Plant response rating, Bedstraw: 0
[1]; [24]
  Bedstraw plant response rating: 0
[2]; [17]
  Wheat plant response rating: 0
[2]; [18]
  Wheat plant response rating: 0
[2]; [19]
  Plant response rating, Wheat: 0
[2]; [20]
  Wheat plant response rating: 0
[2]; [21]
  Wheat plant response rating: 0
[2]; [22]
  Wheat plant response rating: 0
[2]; [23]
  Plant response rating, Wheat: 0
[3]; [17]
  Corn plant response rating: 0
[3]; [18]
  Corn plant response rating: 0
[3]; [19]
  Plant response rating, Corn: 0
[3]; [20]
  Corn plant response rating: 0
[3]; [21]
  Corn plant response rating: 0
[3]; [22]
  Corn plant response rating: 0
[3]; [23]
  Plant response rating, Corn: 0
[3]; [24]
  Corn plant response rating: 0
[4]; [17]
  Blackgrass plant response rating: 0
[4]; [18]
  Blackgrass plant response rating: 0
[4]; [19]
  Plant response rating, Blackgrass: 0
[4]; [20]
  Blackgrass plant response rating: 0
[4]; [21]
  Blackgrass plant response rating: 0
[4]; [22]
  Blackgrass plant response rating: 0
[4]; [23]
  Plant response rating, Blackgrass: 0
[4]; [24]
  Blackgrass plant response rating: 0
[5]; [17]
  B. signalgrass plant response rating: 0
[5]; [18]
  B. signalgrass plant response rating: 0
[5]; [19]
  Plant response rating, B. signalgrass: 0
[5]; [20]
  B. signalgrass plant response rating: 0
[5]; [21]
  B. signalgrass plant response rating: 0
[5]; [22]
  B. signalgrass plant response rating: 0
[5]; [23]
  Plant response rating, B. signalgrass: 0
[5]; [24]
  B. signalgrass plant response rating: 0
[6]; [17]
  Nutsedge plant response rating: 0
[6]; [18]
  Nutsedge plant response rating: 0
[6]; [19]
  Plant response rating, Nutsedge: 0
[6]; [20]
  Nutsedge plant response rating: 0
[6]; [21]
  Nutsedge plant response rating: 0
[6]; [22]
  Nutsedge plant response rating: 0
[6]; [23]
  Plant response rating, Nutsedge: 0
[7]; [17]
  Crabgrass plant response rating: 0
[7]; [18]
  Crabgrass plant response rating: 0
[7]; [19]
  Plant response rating, Crabgrass: 0
[7]; [20]
  Crabgrass plant response rating: 0
[7]; [21]
  Crabgrass plant response rating: 0
[7]; [22]
  Crabgrass plant response rating: 0
[7]; [23]
  Plant response rating, Crabgrass: 0
[8]; [17]
  Redroot pigweed plant response rating: 0
[8]; [18]
  Redroot pigweed plant response rating: 0
[8]; [19]
  Plant response rating, Redroot pigweed: 0
[8]; [20]
  Redroot pigweed plant response rating: 0
[8]; [21]
  Redroot pigweed plant response rating: 0
[8]; [22]
  Redroot pigweed plant response rating: 0
[8]; [23]
  Plant response rating, Redroot pigweed: 0
[9]; [17]
  Cocklebur plant response rating: 0
[9]; [18]
  Cocklebur plant response rating: 0
[9]; [19]
  Plant response rating, Cocklebur: 0
[9]; [20]
  Cocklebur plant response rating: 0
[9]; [21]
  Cocklebur plant response rating: 0
[9]; [22]
  Cocklebur plant response rating: 0
[9]; [23]
  Plant response rating, Cocklebur: 0
[9]; [24]
  Cocklebur plant response rating: 0
[10]; [17]
  Soybean plant response rating: 0
[10]; [18]
  Soybean plant response rating: 0
[10]; [19]
  Plant response rating, Soybean: 0
[10]; [20]
  Soybean plant response rating: 0
[10]; [21]
  Soybean plant response rating: 0
[10]; [22]
  Soybean plant response rating: 0
[10]; [23]
  Plant response rating, Soybean: 1
[11]; [17]
  Wild oats plant response rating: 0
[11]; [18]
  Wild oats plant response rating: 0
[11]; [19]
  Plant response rating, Wild oats: 0
[11]; [20]
  Wild oats plant response rating: 0
[11]; [21]
  Wild oats plant response rating: 0
[11]; [23]
  Plant response rating, Wild oats: 0
[12]; [17]
  Morningglory plant response rating: 0
[12]; [18]
  Morningglory plant response rating: 0
[12]; [19]
  Plant response rating, Morningglory: 0
[12]; [20]
  Morningglory plant response rating: 0
[12]; [21]
  Morningglory plant response rating: 1
[12]; [22]
  Morningglory plant response rating: 0
[12]; [23]
  Plant response rating, Morningglory: 2
[13]; [17]
  Velvetleaf plant response rating: 0
[13]; [18]
  Velvetleaf plant response rating: 0
[13]; [19]
  Plant response rating, Velvetleaf: 0
[13]; [20]
  Velvetleaf plant response rating: 0
[13]; [21]
  Velvetleaf plant response rating: 0
[13]; [22]
  Velvetleaf plant response rating: 0
[13]; [23]
  Plant response rating, Velvetleaf: 0
[14]; [17]
  Giant foxtail plant response rating: 0
[14]; [18]
  Giant foxtail plant response rating: 0
[14]; [19]
  Plant response rating, Giant foxtail: 0
[14]; [20]
  Giant foxtail plant response rating: 0
[14]; [21]
  Giant foxtail plant response rating: 0
[14]; [22]
  Giant foxtail plant response rating: 0
[14]; [23]
  Plant response rating, Giant foxtail: 0
[15]; [17]
  Rape plant response rating: 0
[15]; [18]
  Rape plant response rating: 0
[15]; [19]
  Plant response rating, Rape: 0
[15]; [20]
  Rape plant response rating: 0
[15]; [21]
  Rape plant response rating: 0
[15]; [22]
  Rape plant response rating: 0
[15]; [23]
  Plant response rating, Rape: 0
[16]; [17]
  Sugarbeets plant response rating: 0
[16]; [18]
  Sugarbeets plant response rating: 0
[16]; [19]
  Plant response rating, Sugarbeets: 0
[16]; [20]
  Sugarbeets plant response rating: 0
[16]; [21]
  Sugarbeets plant response rating: 0
[16]; [22]
  Sugarbeets plant response rating: 0
[16]; [23]
  Plant response rating, Sugarbeets: 0
